How the values were obtained:
Test in all cases: relative viability (nuclei count vs DMSO), 5 days (fraction); higher = more cells survive
KIN001-266 + Luminespib = compound: CCN1CCC(CC1)N2C=C(N=N2)CNC3=CC4=C(C(=CN=C4C(=C3)Cl)C#N)NC5=CC(=C(C=C5)F)Cl [KIN001-266] + CCNC(=O)c1noc(-c2cc(C(C)C)c(O)cc2O)c1-c1ccc(CN2CCOCC2)cc1 [Luminespib] (partner 0.01 µM)
How it was run: (§1)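 Lung cancer cell lines were seeded in 1536-well plates and dosed by pin tool the next day, with either a single drug or a fixed anchor-drug dose combined with five library-drug doses (not always all listed) spaced in √10 steps. Five days later, one step fixed the cells and stained their nuclei (final 0.05% Triton X-100, 1% formaldehyde, 1 ug/ml Hoechst), and nuclei were counted on 4× images. Relative viability is the nuclei count in treated wells divided by the count in vehicle wells, and each value is the median of duplicate plates.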

KIN001-266 + Dasatinib = compound: CCN1CCC(CC1)N2C=C(N=N2)CNC3=CC4=C(C(=CN=C4C(=C3)Cl)C#N)NC5=CC(=C(C=C5)F)Cl [KIN001-266] + Cc1nc(Nc2ncc(C(=O)Nc3c(C)cccc3Cl)s2)cc(N2CCN(CCO)CC2)n1 [Dasatinib] (partner 0.075 µM)
How it was run: as §1

KIN001-266 + Foretinib = compound: CCN1CCC(CC1)N2C=C(N=N2)CNC3=CC4=C(C(=CN=C4C(=C3)Cl)C#N)NC5=CC(=C(C=C5)F)Cl [KIN001-266] + COc1cc2c(Oc3ccc(NC(=O)C4(C(=O)Nc5ccc(F)cc5)CC4)cc3F)ccnc2cc1OCCCN1CCOCC1 [Foretinib] (partner 0.25 µM)
How it was run: as §1

KIN001-266 + Decitabine = compound: CCN1CCC(CC1)N2C=C(N=N2)CNC3=CC4=C(C(=CN=C4C(=C3)Cl)C#N)NC5=CC(=C(C=C5)F)Cl [KIN001-266] + Nc1ncn([C@H]2C[C@H](O)[C@@H](CO)O2)c(=O)n1 [Decitabine] (partner 2 µM)
How it was run: as §1

| Cell Line | relative viability (KIN001-266 + Luminespib; first compound 0.08 µM) | relative viability (KIN001-266 + Luminespib; first compound 0.253 µM) | relative viability (KIN001-266 + Luminespib; first compound 0.8 µM) | relative viability (KIN001-266 + Luminespib; first compound 2.53 µM) | relative viability (KIN001-266 + Luminespib; first compound 8 µM) | relative viability (KIN001-266 + Dasatinib; first compound 0.08 µM) | relative viability (KIN001-266 + Dasatinib; first compound 0.253 µM) | relative viability (KIN001-266 + Dasatinib; first compound 0.8 µM) | relative viability (KIN001-266 + Dasatinib; first compound 2.53 µM) | relative viability (KIN001-266 + Dasatinib; first compound 8 µM) | relative viability (KIN001-266 + Foretinib; first compound 0.08 µM) | relative viability (KIN001-266 + Foretinib; first compound 0.253 µM) | relative viability (KIN001-266 + Foretinib; first compound 0.8 µM) | relative viability (KIN001-266 + Foretinib; first compound 2.53 µM) | relative viability (KIN001-266 + Foretinib; first compound 8 µM) | relative viability (KIN001-266 + Decitabine; first compound 0.08 µM) | relative viability (KIN001-266 + Decitabine; first compound 0.253 µM) | relative viability (KIN001-266 + Decitabine; first compound 0.8 µM) | relative viability (KIN001-266 + Decitabine; first compound 2.53 µM) | relative viability (KIN001-266 + Decitabine; first compound 8 µM) |
| --- | --- | --- | --- | --- | --- | --- | --- | --- | --- | --- | --- | --- | --- | --- | --- | --- | --- | --- | --- | --- |
| NCI-H2087 | 0.199 | 0.156 | 0.173 | 0.165 | 0.184 | 0.914 | 0.887 | 0.866 | 0.87 | 0.472 | 1.22 | 1.17 | 1.09 | 1.15 | 0.962 | 0.29 | 0.288 | 0.257 | 0.299 | 0.258 |
| NCI-H2126 | 0.868 | 0.871 | 0.906 | 0.865 | 0.978 | 0.656 | 0.631 | 0.599 | 0.624 | 0.589 | 1.12 | 1.18 | 1.15 | 1.26 | 1.15 | 0.625 | 0.56 | 0.647 | 0.572 | 0.552 |
| NCI-H2170 | 0.704 | 0.801 | 0.675 | 0.739 | 0.568 | 0.422 | 0.505 | 0.571 | 0.594 | 0.576 | 0.984 | 1.03 | 1.01 | 0.987 | 0.976 | 0.47 | 0.437 | 0.457 | 0.436 | 0.414 |
| NCI-H2342 | 0.745 | 0.716 | 0.689 | 0.721 | 0.865 | 0.298 | 0.303 | 0.258 | 0.264 | 0.31 | 1.09 | 1.04 | 1.17 | 1.15 | 1.07 | 0.693 | 0.762 | 0.662 | 0.872 | 0.817 |
| NCI-H2347 | 0.846 | 0.009 | 0.41 | 0.358 | 0.269 | 0.34 | 0.294 | 0.258 | 0.329 | 0.241 | 1.04 | 0.622 | 0.746 | 0.844 | 0.632 | 0.64 | 0.643 | 0.56 | 0.622 | 0.458 |
| NCI-H2405 | 0.743 | 0.712 | 0.628 | 0.701 | 0.516 | 0.207 | 0.241 | 0.233 | 0.223 | 0.202 | 1.06 | 1.02 | 1.02 | 1.05 | 0.713 | 0.772 | 0.78 | 0.783 | 0.694 | 0.627 |
| NCI-H3122 | 0.0939 | 0.0878 | 0.106 | 0.123 | 0.098 | 0.78 | 0.752 | 0.856 | 0.891 | 0.763 | 0.98 | 0.961 | 0.94 | 0.918 | 0.914 | 0.435 | 0.472 | 0.426 | 0.442 | 0.326 |
| PC-3 [JPC-3] | 0.719 | 0.673 | 0.613 | 0.744 | 0.669 | 0.982 | 1.01 | 0.912 | 1.01 | 0.847 | 1.02 | 1.04 | 0.983 | 0.972 | 0.889 | 0.786 | 0.87 | 0.823 | 0.824 | 0.737 |
| PC-14 | 0.167 | 0.117 | 0.171 | 0.225 | 0.152 | 0.297 | 0.277 |  | 0.203 | 0.0481 | 0.907 | 1.04 | 0.743 | 0.979 | 0.503 | 0.214 | 0.253 | 0.2 | 0.265 | 0.229 |
| RERF-LC-KJ | 1.31 | 1.23 | 1.14 | 1.16 | 0.739 | 0.951 | 0.922 | 0.757 | 0.725 | 0.417 | 0.882 | 0.873 | 0.837 | 0.837 | 0.757 | 0.744 | 0.777 | 0.767 | 0.64 | 0.497 |
| SK-LU-1 | 0.206 | 0.215 | 0.223 | 0.22 | 0.189 | 0.192 | 0.19 | 0.172 | 0.197 | 0.195 | 0.844 | 0.824 | 0.84 | 0.814 | 0.486 | 0.718 | 0.623 | 0.615 | 0.552 | 0.478 |
| SK-MES-1 | 0.783 | 0.779 | 1.06 | 0.739 | 0.427 | 0.418 | 0.356 | 0.357 | 0.337 | 0.247 | 0.845 | 0.884 | 0.828 | 0.885 | 0.828 | 0.383 | 0.37 | 0.386 | 0.391 | 0.433 |
| SW 900 | 0.143 | 0.177 | 0.154 | 0.173 | 0.167 | 0.753 | 0.491 | 0.544 | 0.764 | 0.507 | 1.08 | 0.987 | 0.908 | 0.835 | 0.697 | 0.733 | 0.448 | 0.463 | 0.427 | 0.343 |
| SW 1573 | 0.268 | 0.272 | 0.195 | 0.238 | 0.211 | 0.515 | 0.735 | 0.483 | 0.503 | 0.437 | 0.989 | 0.787 | 1.02 | 0.915 | 0.855 | 0.504 | 0.447 | 0.699 | 0.427 | 0.429 |
| UMC-11 | 0.986 | 0.977 | 1.03 | 0.937 | 0.449 | 0.438 | 0.452 | 0.481 | 0.421 | 0.382 | 1.08 | 1.07 | 1.12 | 0.945 | 0.684 | 0.646 | 0.576 | 0.698 | 0.66 | 0.603 |
